Patent publication US20100092526A1, “NANOEMULSION THERAPEUTIC COMPOSITIONS AND METHODS OF USING THE SAME” (NanoBio Corporation, priority 2008, published 2010)
Converted amounts (≈) assume the structure as drawn.

What was measured:
[1] = test system: subset (23) of gram-negative isolates; experiment: Cidality (MBC/MIC ratio) against a subset (23) of gram-negative isolates; type: cell-based, gram-negative bacteria; details: 23 isolates
[2] = test system: methicillin-resistant Staphylococcus aureus (MRSA); experiment: Susceptibility (MIC/MBC) of MRSA clinical isolates; type: cell-based; details: Staphylococcus aureus; MRSA isolates; read-out: MIC90
[3] = test system: P. aeruginosa, B. cenocepacia, A. baumannii and S. maltophilia; experiment: MIC/MBC against all strains of Example 8; details: for MBC: read-out: MBC90, against all strains
Burkholderia strains = experiment: Checkerboard synergy study (FIC/FBC index); type: cell-based; details: for Summary of synergy data (overall interaction): Burkholderia, combined with P4075EC & 5 mM EDTA
Stenotrophomonas strains = experiment: Checkerboard synergy study (FIC/FBC index); type: cell-based; details: for Summary of synergy data (overall interaction): Stenotrophomonas, combined with P4075EC & 1 mM EDTA
Acinetobacter strains = experiment: Checkerboard synergy study (FIC/FBC index); type: cell-based; details: for Summary of synergy data (overall interaction): Acinetobacter, combined with P4075EC & 1 mM EDTA
[4] = isolate NB21, combined with P4075EC+EDTA
[5] = isolate NB22, combined with P4075EC+EDTA
[6] = isolate NB23, combined with P4075EC+EDTA
[7] = isolate NB24, combined with P4075EC+EDTA
[8] = isolate NB25, combined with P4075EC+EDTA
[9] = isolate NB26, combined with P4075EC+EDTA
[10] = isolate NB27, combined with P4075EC+EDTA
[11] = isolate NB28b, combined with P4075EC+EDTA
[12] = isolate NB29, combined with P4075EC+EDTA
[13] = isolate NB30, combined with P4075EC+EDTA
[14] = share of ten Burkholderia strains with synergy, combined with P4075EC+EDTA
[15] = isolate NB42, combined with P4075EC+EDTA
[16] = isolate NB43, combined with P4075EC+EDTA
[17] = isolate NB44, combined with P4075EC+EDTA
[18] = isolate NB45, combined with P4075EC+EDTA
[19] = isolate Steno 1, combined with P4075EC+EDTA
[20] = isolate Steno 2, combined with P4075EC+EDTA
[21] = isolate Steno 3, combined with P4075EC+EDTA
[22] = isolate Steno 4, combined with P4075EC+EDTA
[23] = isolate Steno 6, combined with P4075EC+EDTA
[24] = isolate Steno 8, combined with P4075EC+EDTA
[25] = share of Stenotrophomonas strains with synergy, combined with P4075EC+EDTA
[26] = isolate NB31, combined with P4075EC+EDTA
[27] = isolate NB32, combined with P4075EC+EDTA
[28] = isolate NB33, combined with P4075EC+EDTA
[29] = isolate NB34, combined with P4075EC+EDTA
[30] = isolate NB35, combined with P4075EC+EDTA
[31] = isolate NB36, combined with P4075EC+EDTA
[32] = isolate NB37, combined with P4075EC+EDTA
[33] = isolate NB38, combined with P4075EC+EDTA
[34] = isolate NB39, combined with P4075EC+EDTA
[35] = isolate NB40, combined with P4075EC+EDTA
[36] = share of 10 Acinetobacter strains with synergy, combined with P4075EC+EDTA

Question: Which results are given for `C[C@H]1COc2c(N3CCN(C)CC3)c(F)cc3c(=O)c(C(=O)O)cn1c23` [Levofloxacin]?
Answer: number of strains with MBC/MIC ratio 1 ([1]; Cidal): 9 number of strains; number of strains with MBC/MIC ratio 2 ([1]; Cidal): 8 number of strains; number of strains with MBC/MIC ratio 4 ([1]; Cidal): 1 number of strains; number of strains with MBC/MIC ratio >8x ([1]; Static): 5 number of strains; MIC90 [2]: 32 µg/mL (≈ 88.6 µM); MIC90 [3]: 16 µg/mL (≈ 44.3 µM); MBC [3]: 16 µg/mL (≈ 44.3 µM)

Question: What does the source list for `NC[C@H]1O[C@H](O[C@H]2[C@H](O)[C@@H](O[C@H]3O[C@H](CO)[C@@H](O)[C@H](N)[C@H]3O)[C@H](N)C[C@@H]2N)[C@H](N)C[C@@H]1O` [Tobramycin]?
Answer: Summary of synergy data (overall interaction) (Burkholderia strains): No Interference; Summary of synergy data (overall interaction) (Stenotrophomonas strains): No Interference; Summary of synergy data (overall interaction) (Acinetobacter strains): No Interference; MIC90 [3]: > 32 µg/mL; MBC [3]: > 32 µg/mL

Question: Which results are given for Colistin?
Answer: Summary of synergy data (overall interaction) (Burkholderia strains): No Interference; FBC (Burkholderia strains; [4]): 2.07; FIC (Burkholderia strains; [4]): 1.45; Synergy (FBC) (Burkholderia strains; [4]): indifferent; Synergy (FIC) (Burkholderia strains; [4]): indifferent; FBC (Burkholderia strains; [5]): 2.29; FIC (Burkholderia strains; [5]): 1.37; Synergy (FBC) (Burkholderia strains; [5]): indifferent; Synergy (FIC) (Burkholderia strains; [5]): indifferent; FBC (Burkholderia strains; [6]): 2.00; FIC (Burkholderia strains; [6]): 1.01; Synergy (FBC) (Burkholderia strains; [6]): indifferent; Synergy (FIC) (Burkholderia strains; [6]): indifferent; FBC (Burkholderia strains; [7]): 2.00; FIC (Burkholderia strains; [7]): 1.72; Synergy (FBC) (Burkholderia strains; [7]): indifferent; Synergy (FIC) (Burkholderia strains; [7]): indifferent; FBC (Burkholderia strains; [8]): 3.00; FIC (Burkholderia strains; [8]): 2.00; Synergy (FBC) (Burkholderia strains; [8]): indifferent; Synergy (FIC) (Burkholderia strains; [8]): indifferent; FBC (Burkholderia strains; [9]): 0.04; FIC (Burkholderia strains; [9]): 0.56; Synergy (FBC) (Burkholderia strains; [9]): yes; Synergy (FIC) (Burkholderia strains; [9]): yes; FBC (Burkholderia strains; [10]): 1.64; FIC (Burkholderia strains; [10]): 1.93; Synergy (FBC) (Burkholderia strains; [10]): indifferent; Synergy (FIC) (Burkholderia strains; [10]): indifferent; FBC (Burkholderia strains; [11]): 1.54; FIC (Burkholderia strains; [11]): 0.29; Synergy (FBC) (Burkholderia strains; [11]): indifferent; Synergy (FIC) (Burkholderia strains; [11]): yes; FBC (Burkholderia strains; [12]): 1.68; FIC (Burkholderia strains; [12]): 1.61; Synergy (FBC) (Burkholderia strains; [12]): indifferent; Synergy (FIC) (Burkholderia strains; [12]): indifferent; FBC (Burkholderia strains; [13]): 1.86; FIC (Burkholderia strains; [13]): 0.02; Synergy (FBC) (Burkholderia strains; [13]): indifferent; Synergy (FIC) (Burkholderia strains; [13]): yes; % FBC Synergy (Burkholderia strains; [14]): 10%; % FIC Synergy (Burkholderia strains; [14]): 30%; Summary of synergy data (overall interaction) (Stenotrophomonas strains): Synergy; FBC (Stenotrophomonas strains; [15]): 1.28; FIC (Stenotrophomonas strains; [15]): 0.08; Synergy (FBC) (Stenotrophomonas strains; [15]): indifferent; Synergy (FIC) (Stenotrophomonas strains; [15]): yes; FBC (Stenotrophomonas strains; [16]): 0.15; FIC (Stenotrophomonas strains; [16]): 0.08; Synergy (FBC) (Stenotrophomonas strains; [16]): yes; Synergy (FIC) (Stenotrophomonas strains; [16]): yes; FBC (Stenotrophomonas strains; [17]): 0.57; FIC (Stenotrophomonas strains; [17]): 1.01; Synergy (FBC) (Stenotrophomonas strains; [17]): indifferent; Synergy (FIC) (Stenotrophomonas strains; [17]): indifferent; FBC (Stenotrophomonas strains; [18]): 0.45; FIC (Stenotrophomonas strains; [18]): 0.04; Synergy (FBC) (Stenotrophomonas strains; [18]): yes; Synergy (FIC) (Stenotrophomonas strains; [18]): yes; FBC (Stenotrophomonas strains; [19]): 0.11; FIC (Stenotrophomonas strains; [19]): 0.08; Synergy (FBC) (Stenotrophomonas strains; [19]): yes; Synergy (FIC) (Stenotrophomonas strains; [19]): yes; FBC (Stenotrophomonas strains; [20]): 0.04; FIC (Stenotrophomonas strains; [20]): 0.09; Synergy (FBC) (Stenotrophomonas strains; [20]): yes; Synergy (FIC) (Stenotrophomonas strains; [20]): yes; FBC (Stenotrophomonas strains; [21]): 0.14; FIC (Stenotrophomonas strains; [21]): 0.09; Synergy (FBC) (Stenotrophomonas strains; [21]): yes; Synergy (FIC) (Stenotrophomonas strains; [21]): yes; FBC (Stenotrophomonas strains; [22]): 1.14; FIC (Stenotrophomonas strains; [22]): 0.46; Synergy (FBC) (Stenotrophomonas strains; [22]): indifferent; Synergy (FIC) (Stenotrophomonas strains; [22]): yes; FBC (Stenotrophomonas strains; [23]): 0.02; FIC (Stenotrophomonas strains; [23]): 0.09; Synergy (FBC) (Stenotrophomonas strains; [23]): yes; Synergy (FIC) (Stenotrophomonas strains; [23]): yes; FBC (Stenotrophomonas strains; [24]): 0.07; FIC (Stenotrophomonas strains; [24]): 0.09; Synergy (FBC) (Stenotrophomonas strains; [24]): yes; Synergy (FIC) (Stenotrophomonas strains; [24]): yes; % FBC Synergy (Stenotrophomonas strains; [25]): 70%; % FIC Synergy (Stenotrophomonas strains; [25]): 90%; Summary of synergy data (overall interaction) (Acinetobacter strains): No Interference; FBC (Acinetobacter strains; [26]): 2.44; FIC (Acinetobacter strains; [26]): 0.83; Synergy (FBC) (Acinetobacter strains; [26]): indifferent; Synergy (FIC) (Acinetobacter strains; [26]): indifferent; FBC (Acinetobacter strains; [27]): 1.36; FIC (Acinetobacter strains; [27]): 0.58; Synergy (FBC) (Acinetobacter strains; [27]): indifferent; Synergy (FIC) (Acinetobacter strains; [27]): indifferent; FBC (Acinetobacter strains; [28]): 2; FIC (Acinetobacter strains; [28]): 0.33; Synergy (FBC) (Acinetobacter strains; [28]): indifferent; Synergy (FIC) (Acinetobacter strains; [28]): yes; FBC (Acinetobacter strains; [29]): 1.10; FIC (Acinetobacter strains; [29]): 0.46; Synergy (FBC) (Acinetobacter strains; [29]): indifferent; Synergy (FIC) (Acinetobacter strains; [29]): yes; FBC (Acinetobacter strains; [30]): 0.97; FIC (Acinetobacter strains; [30]): 0.72; Synergy (FBC) (Acinetobacter strains; [30]): indifferent; Synergy (FIC) (Acinetobacter strains; [30]): indifferent; FBC (Acinetobacter strains; [31]): 2; FIC (Acinetobacter strains; [31]): 0.56; Synergy (FBC) (Acinetobacter strains; [31]): indifferent; Synergy (FIC) (Acinetobacter strains; [31]): indifferent; FBC (Acinetobacter strains; [32]): 1.00; FIC (Acinetobacter strains; [32]): 0.63; Synergy (FBC) (Acinetobacter strains; [32]): indifferent; Synergy (FIC) (Acinetobacter strains; [32]): indifferent; FBC (Acinetobacter strains; [33]): 0.68; FIC (Acinetobacter strains; [33]): 0.77; Synergy (FBC) (Acinetobacter strains; [33]): indifferent; Synergy (FIC) (Acinetobacter strains; [33]): indifferent; FBC (Acinetobacter strains; [34]): 1.22; FIC (Acinetobacter strains; [34]): 0.72; Synergy (FBC) (Acinetobacter strains; [34]): indifferent; Synergy (FIC) (Acinetobacter strains; [34]): indifferent; FBC (Acinetobacter strains; [35]): 0.91; FIC (Acinetobacter strains; [35]): 0.63; Synergy (FBC) (Acinetobacter strains; [35]): indifferent; Synergy (FIC) (Acinetobacter strains; [35]): indifferent; % FBC Synergy (Acinetobacter strains; [36]): 0%; % FIC Synergy (Acinetobacter strains; [36]): 20%
